The text below walks through data of ChEMBL document CHEMBL4219202, “C21 steroidal glycosides with cytotoxic activities from Cynanchum otophyllum” (Bioorg Med Chem Lett, 2018).

Common to all, as to type: functional, cell-based
The test system of one experiment is SW480. Nature of the experiment: Cytotoxicity against human SW480 cells assessed as reduction in cell viability after 48 hrs by MTS assay. To be noted: SW480, 48 h. On the technique in general: Formazan colour is commonly taken as a measure of viable cells.
Another experiment deals with HL-60. The experiment can be described thus: Cytotoxicity against human HL60 cells assessed as reduction in cell viability after 48 hrs by MTS assay. To be noted: HL-60, 48 h.
A further experiment relates to A549. Nature of the experiment: Cytotoxicity against human A549 cells assessed as reduction in cell viability after 48 hrs by MTS assay. To be noted: A549, 48 h.
For a further experiment, the system named is SMMC-7721. Nature of the experiment: Cytotoxicity against human SMMC7721 cells assessed as reduction in cell viability after 48 hrs by MTS assay. To be noted: SMMC-7721, 48 h.
Another experiment concerns MCF7. Nature of the experiment: Cytotoxicity against human MCF7 cells assessed as reduction in cell viability after 48 hrs by MTS assay. To be noted: MCF7, 48 h.

The IC50 is the concentration that inhibits the measured activity by half. As to `CO[C@H]1C[C@H](O[C@H]2[C@@H](OC)C[C@H](O[C@H]3CC[C@@]4(C)C(=CC[C@]5(O)[C@@H]4C[C@@H](OC(=O)/C=C/c4ccccc4)[C@@]4(C)[C@]5(O)CC[C@@]4(O)C(C)=O)C3)O[C@@H]2C)O[C@H](C)[C@H]1O`, the IC50 worked out at 36.7 µM with SW480; 20.6 µM in the experiment on HL-60; 35.5 µM in the experiment with A549; 33.1 µM in the experiment with SMMC-7721; 25.6 µM with MCF7.
Taken in the same sequence, the figures for `CO[C@H]1C[C@H](O[C@H]2CC[C@@]3(C)C(=CC[C@]4(O)[C@@H]3C[C@@H](OC(=O)/C=C(\C)C(C)C)[C@@]3(C)[C@]4(O)CC[C@@]3(O)C(C)=O)C2)O[C@H](C)[C@H]1O[C@H]1C[C@H](O)[C@H](O[C@H]2C[C@@H](OC)[C@H](O)[C@@H](C)O2)[C@@H](C)O1` were 24.8 µM, 12.9 µM, 30.4 µM, 27.4 µM and 17.2 µM.
On to `CO[C@H]1C[C@H](O[C@H]2[C@@H](OC)C[C@H](O[C@H]3CC[C@]4(C)[C@H]5C[C@@H](OC(=O)/C=C(\C)C(C)C)[C@@]6(C)[C@](O)(CC[C@@]6(O)C(C)=O)[C@]5(O)C[C@@H]5O[C@@]54C3)O[C@@H]2C)O[C@H](C)[C@H]1O`, for which the IC50 is more than 40 µM with SW480; 15.8 µM in the experiment with HL-60; more than 40 µM in the experiment on A549; more than 40 µM in the experiment on SMMC-7721; more than 40 µM with MCF7.
Turning to `CO[C@H]1C[C@H](O[C@H]2CC[C@@]3(C)C(=CC[C@]4(O)[C@@H]3C[C@@H](OC(=O)/C=C/C(C)C)[C@@]3(C)[C@]4(O)CC[C@@]3(O)C(C)=O)C2)O[C@H](C)[C@H]1O[C@H]1C[C@H](OC)[C@H](O[C@H]2C[C@@H](OC)[C@H](O)[C@@H](C)O2)[C@@H](C)O1`, the IC50 in the experiment with SW480 was more than 40 µM; with HL-60, 25.8 µM; in the experiment with A549, more than 40 µM; in the experiment on SMMC-7721, more than 40 µM; in the experiment on MCF7 it was more than 40 µM.
For `CO[C@H]1C[C@H](O[C@H]2CC[C@@]3(C)C(=CC[C@]4(O)[C@@H]3C[C@@H](OC(=O)c3ccc(O)cc3)[C@@]3(C)[C@]4(O)CC[C@@]3(O)C(C)=O)C2)O[C@H](C)[C@H]1O[C@H]1C[C@H](OC)[C@H](O[C@H]2C[C@@H](OC)[C@H](O)[C@@H](C)O2)[C@@H](C)O1`, the IC50 in the experiment on SW480 was more than 40 µM; with HL-60 it was 29.1 µM; in the experiment on A549 it was more than 40 µM; with SMMC-7721, more than 40 µM; in the experiment on MCF7, more than 40 µM.
On to `CO[C@H]1C[C@H](O[C@H]2CC[C@@]3(C)C(=CC[C@]4(O)[C@@H]3C[C@@H](OC(=O)/C=C(\C)C(C)C)[C@@]3(C)[C@]4(O)CC[C@@]3(O)C(C)=O)C2)O[C@H](C)[C@H]1O[C@H]1C[C@@H](OC)[C@H](O)[C@@H](C)O1`, for which the IC50 in the experiment with SW480 is more than 40 µM; in the experiment with HL-60 it was 15.4 µM; with A549, more than 40 µM; with SMMC-7721 it was more than 40 µM; in the experiment on MCF7 it was more than 40 µM.
Take `COc1cc(C(=O)O[C@@H]2C[C@@H]3[C@@]4(C)CC[C@H](O[C@H]5C[C@H](O)[C@H](O[C@H]6C[C@H](OC)[C@H](O[C@H]7C[C@@H](OC)[C@H](O)[C@@H](C)O7)[C@@H](C)O6)[C@@H](C)O5)CC4=CC[C@@]3(O)[C@@]3(O)CC[C@@](O)(C(C)=O)[C@@]23C)ccc1O`: the IC50 in the experiment on SW480 was more than 40 µM; in the experiment on HL-60, 37.9 µM; in the experiment on A549, more than 40 µM; with SMMC-7721, more than 40 µM; in the experiment with MCF7, more than 40 µM.
`CO[C@H]1C[C@H](O[C@H]2[C@@H](O)C[C@H](O[C@H]3CC[C@@]4(C)C(=CC[C@]5(O)[C@@H]4C[C@@H](OC(=O)/C=C(\C)C(C)C)[C@@]4(C)[C@]5(O)CC[C@@]4(O)C(C)=O)C3)O[C@@H]2C)O[C@H](C)[C@H]1O`: the IC50 in the experiment with SW480 is more than 40 µM; with HL-60 it was 15.7 µM; in the experiment with A549, more than 40 µM; with SMMC-7721 it was more than 40 µM; in the experiment on MCF7, more than 40 µM.
Consider `CO[C@H]1C[C@H](O[C@H]2CC[C@@]3(C)C(=CC[C@]4(O)[C@@H]3C[C@@H](OC(=O)c3ccccc3)[C@@]3(C)[C@]4(O)CC[C@@]3(O)C(C)=O)C2)O[C@H](C)[C@H]1O[C@H]1C[C@@H](OC)[C@H](O)[C@@H](C)O1`, for which the half-maximal inhibitory concentration (IC50) in the experiment with SW480 is more than 40 µM; in the experiment with HL-60 it was 15.6 µM; in the experiment on A549 it was more than 40 µM; with SMMC-7721, more than 40 µM; in the experiment on MCF7 it was more than 40 µM.
`CO[C@H]1C[C@H](O[C@H]2CC[C@@]3(C)C(=CC[C@]4(O)[C@@H]3C[C@@H](OC(=O)/C=C(\C)C(C)C)[C@@]3(C)[C@]4(O)CC[C@@]3(O)C(C)=O)C2)O[C@H](C)[C@H]1O`: the IC50 in the experiment on SW480 is more than 40 µM; with HL-60, 25.6 µM; in the experiment with A549 it was more than 40 µM; in the experiment with SMMC-7721 it was more than 40 µM; with MCF7 it was more than 40 µM.
On to `CO[C@H]1C[C@H](O[C@H]2CC[C@@]3(C)C(=CC[C@]4(O)[C@@H]3C[C@@H](OC(=O)/C=C(\C)C(C)C)[C@@]3(C)[C@]4(O)CC[C@@]3(O)C(C)=O)C2)O[C@H](C)[C@H]1O[C@H]1C[C@H](OC)[C@H](O[C@H]2C[C@@H](OC)[C@H](O[C@H]3C[C@@H](OC)[C@H](O)[C@@H](C)O3)[C@@H](C)O2)[C@@H](C)O1`, for which the IC50 is 28.8 µM in the experiment with SW480; 12.2 µM with HL-60; more than 40 µM with A549; 30.8 µM in the experiment with SMMC-7721; 18 µM in the experiment on MCF7.
Consider `C/C=C(\C)C(=O)O[C@@H]1C[C@@H]2[C@@]3(C)CC[C@H](O[C@H]4C[C@H](OC)[C@H](O[C@H]5C[C@H](OC)[C@H](O[C@H]6C[C@@H](OC)[C@H](O)[C@@H](C)O6)[C@@H](C)O5)[C@@H](C)O4)CC3=CC[C@@]2(O)[C@@]2(O)CC[C@@](O)(C(C)=O)[C@@]12C`, for which the IC50 in the experiment on SW480 was more than 40 µM; in the experiment on HL-60 it was 15.6 µM; with A549, more than 40 µM; in the experiment on SMMC-7721 it was more than 40 µM; in the experiment on MCF7, more than 40 µM.
Consider `CO[C@H]1C[C@H](O[C@H]2CC[C@@]3(C)C(=CC[C@]4(O)[C@@H]3C[C@@H](OC(=O)/C=C(\C)C(C)C)[C@@]3(C)[C@]4(O)CC[C@@]3(O)C(C)=O)C2)O[C@H](C)[C@H]1O[C@H]1C[C@H](OC)[C@H](O[C@H]2C[C@@H](OC)[C@H](O)[C@@H](C)O2)[C@@H](C)O1`, for which the IC50 in the experiment on SW480 was 30.3 µM; in the experiment on HL-60 it was 11.4 µM; with A549 it was 27.7 µM; with SMMC-7721, 27.9 µM; in the experiment on MCF7, 16.1 µM.
